Test results reported in US20240300923A1, “IRAK4 Inhibitors” (ASTRAZENECA AB, priority 2022, published 2024).
pIC50: −log10 of the molar value.

Assays:
human cKit kinase = human cKit kinase (Homo sapiens (Human), UniProt P10721); test: cKit enzyme assay (LANCE, Eurofins CEREP); type: biochemical; settings: human recombinant enzyme, 50 μM ATP; geometric mean of at least n=2, * = single experiment
Experimental: Potency of IRAK4 Inhibitor Compounds in cKit Enzyme Assay
Evaluation of the effects of the IRAK4 inhibitor compounds on the activity of the human cKit kinase quantified by measuring the phosphorylation of the substrate Ulight-TK peptide using a human recombinant enzyme and the LANCE® detection method at Eurofins CEREP, catalog item 3070, SOP no 1C768: The test compound, reference compound or water (control) are mixed with the enzyme (0.38 ng) in a buffer containing 40 mM Hepes/Tris (pH 7.4), 0.8 mM EGTA/Tris, 8 mM MgCl2, 1.6 mM DTT and 0.008% Tween 20. Thereafter, the reaction is initiated by adding 100 nM of the substrate Ulight-TK peptide and 50 μM ATP, and the mixture is incubated for 30 min at room temperature. For control basal measurements, the enzyme is omitted from the reaction mixture. Following incubation, the reaction is stopped by adding 13 mM EDTA. After 5 min, the anti-phopho-PT66 antibody labeled with europium chelate is added. After 60 more min, the fluorescence transfer is measured at lex=337 nm, lem=620 nm and lem=665 nm using a microplate reader (Envision, Perkin Elmer). The enzyme activity is determined by dividing the signal measured at 665 nm by that measured at 620 nm (ratio). The results are expressed as a percent inhibition of the control enzyme activity. The standard inhibitory reference compound is staurosporine, which is tested in each experiment at several concentrations to obtain an inhibition curve from which its IC50 value is calculated.
Data presented are the geometric mean of at least n=2, or as denoted by an*are obtained from a single experiment. […] Kinase selectivity can be a key determinant of clinical utility as off target toxicity can be reduced or eliminated.

IRAK4 [1] = molecular target: T1, IRAK4 (Homo sapiens (Human), UniProt Q9NWZ3); test: IRAK4 enzyme assay (mass spectrometry readout); type: biochemical; settings: human recombinant IRAK4 0.2 nM, 3 mM ATP; geometric mean of at least 2 experiments
Experimental: Potency of IRAK4 Inhibitor Compounds in IRAK4 Enzyme Assay
The inhibitory activity of compounds against IRAK4 were determined in an enzymatic assay using mass spectrometry readout. Ten point half-log compound concentration response curves, with a top concentration of 1 μM or 10 μM, were generated from 10 mM stocks of compound solubilized in DMSO using an Echo 655 (Labcyte Inc) and added to 384 well assay plates (Greiner #781280). To the assay plates, 10 μL of human recombinant IRAK4 protein (Life Technologies #PV4002) diluted to a final concentration of 0.2 nM in assay buffer (50 mM Tris-HCl pH 7.4, 10 mM MgCl, 5 mM glutathione, 0.01% BSA, 3 mM ATP) was added. The enzyme was incubated with the compounds at room temperature for 15 minutes before a peptide substrate ([…], Innovagen custom synthesis, 10 mM in DMSO) was added to each well to a final concentration of 10 μM using an Echo 655 (Labcyte Inc). After two hours at room temperature, the reaction was stopped with 65 μL of 0.4% formic acid (Merck #33015). The unphosphorylated and phosphorylated peptide were measured by LC-MS/MS on a Waters TQ-S mass spectrometer. Peaks were integrated using the TargetLynx software and the ratios between phosphorylated and unphosphorylated peptides were calculated. Curves were fitted and compound potencies determined in Genedata Screener 19 (Genedata AG). IC50 values are the geometric mean of at least 2 experiments.

IRAK4 [2] = molecular target: T1, IRAK4; test: IRAK4 phosphorylation cell assay (IL-1β-stimulated Karpas-299 cells); type: cell-based; settings: IRAK4 auto-phosphorylation (pIRAK4 Thr345/Ser346) in IL-1β-stimulated Karpas-299 cells; geometric mean of at least 2 experiments
Experimental: IRAK4 Phosphorylation Cell Assay
The activation of IRAK4 by TLR or IL-1R ligands leads to IRAK4 auto-phosphorylation, which can be prevented by IRAK4 kinase inhibitors. The effect of IRAK4 inhibitor compounds on IRAK4 auto-phosphorylation was assessed in IL-1β-stimulated Karpas-299 cells as a measurement of cellular potency. Karpas-299 cells were cultured in RPMI 1640 (Gibco 61870-010) containing 10% FBS (Gibco #10270). Cells were plated at 2×10^4 cells per well in poly-D-lysine coated 384 well plates (Corning #356663) to which compounds had been added at various concentrations (10 point half log dose response with a final top concentration of 30 μM) using an Echo 655 (Labcyte Inc). Cells were centrifuged (250 g, 4 mins), incubated at 37° C. for 1 h, then stimulated with 22.7 ng/mL recombinant IL-1β (R&D Systems, #201-LB-025) at 37° C. for 10 mins, followed by fixation in 4% paraformaldehyde for 20 mins and permeabilization in ice-cold 70% MeOH in PBS for 30 mins. Cells were washed twice with phosphate-buffered saline (PBS) on a BlueWasher (BlueCatBio) then blocked with PBS containing 10% FBS for 20 mins. Blocking solution was removed with a BlueWasher and cells were stained with anti-pIRAK4 (Thr345/Ser346) (CST, #11927, 1:400) in blocking buffer with 0.05% Tween-20 for 1 h, then washed twice with PBS containing 0.05% Tween-20 on a BlueWasher, followed by staining with a Alexa 647-conjugated secondary anti-rabbit IgG antibody (CST, #4414, 1:2,000) and Hoechst 33342 (Sigma, 1:2,000) in blocking buffer with 0.05% Tween-20 for 30 mins. Finally, the cells were washed twice with PBS containing 0.05% Tween-20 and imaged on an ImageXpress Micro (Molecular Devices) with a 10× air objective using the appropriate filters. Images were analysed in Columbus (PerkinElmer) and the fluorescence intensity per cell from the secondary antibody was quantified. The quantified data were analysed in Genedata Screener 19 (Genedata AG). […] IC50 values are the geometric mean of at least 2 experiments.

T1 sequence (Q9NWZ3 whole entry): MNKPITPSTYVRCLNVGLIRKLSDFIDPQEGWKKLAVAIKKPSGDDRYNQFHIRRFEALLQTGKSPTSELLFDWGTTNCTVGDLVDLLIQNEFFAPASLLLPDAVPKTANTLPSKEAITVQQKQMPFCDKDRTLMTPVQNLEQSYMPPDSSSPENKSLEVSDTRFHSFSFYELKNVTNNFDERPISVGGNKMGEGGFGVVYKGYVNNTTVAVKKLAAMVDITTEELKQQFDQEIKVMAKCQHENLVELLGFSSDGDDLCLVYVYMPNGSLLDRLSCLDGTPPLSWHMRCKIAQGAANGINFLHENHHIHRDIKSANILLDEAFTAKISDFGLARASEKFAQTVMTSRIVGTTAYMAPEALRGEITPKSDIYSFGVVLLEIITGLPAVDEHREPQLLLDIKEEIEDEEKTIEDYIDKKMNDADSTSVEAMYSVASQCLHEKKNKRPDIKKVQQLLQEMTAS
human cKit kinase, sequence (P10721 26-976): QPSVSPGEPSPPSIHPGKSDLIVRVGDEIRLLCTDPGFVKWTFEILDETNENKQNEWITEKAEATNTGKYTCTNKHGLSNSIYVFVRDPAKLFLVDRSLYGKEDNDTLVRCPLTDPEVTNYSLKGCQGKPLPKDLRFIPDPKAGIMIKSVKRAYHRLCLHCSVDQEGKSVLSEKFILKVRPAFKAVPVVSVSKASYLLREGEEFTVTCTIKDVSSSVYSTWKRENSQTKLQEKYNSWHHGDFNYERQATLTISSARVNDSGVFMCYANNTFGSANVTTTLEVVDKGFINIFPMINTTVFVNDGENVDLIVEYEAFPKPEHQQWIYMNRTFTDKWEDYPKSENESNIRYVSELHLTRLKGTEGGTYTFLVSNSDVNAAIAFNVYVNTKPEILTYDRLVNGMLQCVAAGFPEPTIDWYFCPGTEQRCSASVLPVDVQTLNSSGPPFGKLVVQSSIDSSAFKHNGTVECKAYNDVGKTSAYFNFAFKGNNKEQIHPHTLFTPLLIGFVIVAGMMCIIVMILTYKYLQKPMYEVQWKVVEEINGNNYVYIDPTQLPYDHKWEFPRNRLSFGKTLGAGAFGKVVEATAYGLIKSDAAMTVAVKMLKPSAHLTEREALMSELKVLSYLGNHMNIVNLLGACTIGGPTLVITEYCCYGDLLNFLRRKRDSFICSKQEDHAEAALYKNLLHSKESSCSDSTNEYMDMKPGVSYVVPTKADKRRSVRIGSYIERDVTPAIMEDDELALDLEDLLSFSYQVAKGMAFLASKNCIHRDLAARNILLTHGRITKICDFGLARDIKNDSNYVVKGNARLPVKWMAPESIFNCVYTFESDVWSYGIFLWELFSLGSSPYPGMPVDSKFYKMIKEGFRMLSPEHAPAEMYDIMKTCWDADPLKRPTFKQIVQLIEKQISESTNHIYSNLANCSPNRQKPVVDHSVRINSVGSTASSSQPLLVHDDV

pIC50 (human cKit kinase) | pIC50 (IRAK4 [1]) | pIC50 (IRAK4 [2]) | SMILES
4.24 | 9.22 | 7.62 | COc1cc2nn([C@H]3CC[C@H](N(C)C(=O)[C@@H](C)O)CC3)cc2cc1C(=O)Nc1cccn(C2CC2)c1=O [Example 12, N-(1-Cyclopropyl-2-oxo-1,2-dihydropyridin-3-yl)-2-((1R,4r)-4-((R)-2-hydroxy-N-methylpropanamido)cyclohexyl)-6-methoxy-2H-indazole-5-carboxamide]
< 4.30 | 9.15 | 7.52 | COc1cc2nn([C@H]3CC[C@H](N(C)C(=O)[C@@H](C)O)CC3)cc2cc1C(=O)Nc1cccn(C2COC2)c1=O [Example 13, 2-((1R,4r)-4-((R)-2-Hydroxy-N-methylpropanamido)cyclohexyl)-6-methoxy-N-(1-(oxetan-3-yl)-2-oxo-1,2-dihydropyridin-3-yl)-2H-indazole-5-carboxamide]
5.57 | 9.05 | 7.46 | COc1cc2nn([C@H]3CC[C@H](N(C)C(=O)[C@@H](C)O)CC3)cc2cc1C(=O)Nc1cccn(-c2cnn(C)c2)c1=O [Example 15, 2-((1R,4r)-4-((R)-2-Hydroxy-N-methylpropanamido)cyclohexyl)-6-methoxy-N-(1-(1-methyl-1H-pyrazol-4-yl)-2-oxo-1,2-dihydropyridin-3-yl)-2H-indazole-5-carboxamide]
5.85 | 9.00 | 7.48 | COc1cc2nn([C@H]3CC[C@H](N(C)C(=O)[C@@H](C)O)CC3)cc2cc1C(=O)Nc1cccn(-c2cn(C)nn2)c1=O [Example 16, 2-((1R,4r)-4-((R)-2-Hydroxy-N-methylpropanamido)cyclohexyl)-6-methoxy-N-(1-(1-methyl-1H-1,2,3-triazol-4-yl)-2-oxo-1,2-dihydropyridin-3-yl)-2H-indazole-5-carboxamide]
< 4.00 | 8.96 | 7.47 | COc1cc2nn([C@H]3CC[C@H](N(C)C(=O)[C@@H](C)O)CC3)cc2cc1C(=O)Nc1cccn(-c2cnn(C)n2)c1=O [Example 17, 2-((1R,4r)-4-((R)-2-Hydroxy-N-methylpropanamido)cyclohexyl)-6-methoxy-N-(1-(2-methyl-2H-1,2,3-triazol-4-yl)-2-oxo-1,2-dihydropyridin-3-yl)-2H-indazole-5-carboxamide]
5.62 | 9.00 | 7.49 | COc1cc2nn([C@H]3CC[C@H](N4CCCC4=O)CC3)cc2cc1C(=O)Nc1cccn(C)c1=O [Example 18, 6-Methoxy-N-(1-methyl-2-oxo-1,2-dihydropyridin-3-yl)-2-((1r,4r)-4-(2-oxopyrrolidin-1-yl)cyclohexyl)-2H-indazole-5-carboxamide]
4.97 | 9.05 | 7.47 | COc1cc2nn([C@H]3CC[C@H](N4CCN(C)C4=O)CC3)cc2cc1C(=O)Nc1cccn(C)c1=O [Example 19, 6-Methoxy-N-(1-methyl-2-oxo-1,2-dihydropyridin-3-yl)-2-((1r,4r)-4-(3-methyl-2-oxoimidazolidin-1-yl)cyclohexyl)-2H-indazole-5-carboxamide]
4.58 | 9.30 | 7.59 | COc1cc2nn([C@H]3CC[C@H](n4ccccc4=O)CC3)cc2cc1C(=O)Nc1cccn(C)c1=O [Example 22, 6-Methoxy-N-(1-methyl-2-oxo-1,2-dihydropyridin-3-yl)-2-((1r,4r)-4-(2-oxopyridin-1(2H)-yl)cyclohexyl)-2H-indazole-5-carboxamide]
< 4.00 | 8.77 | 7.35 | COc1cc2nn([C@H]3CC[C@H](c4nnco4)CC3)cc2cc1C(=O)Nc1cccn(C)c1=O [Example 25, 2-((1r,4r)-4-(1,3,4-Oxadiazol-2-yl)cyclohexyl)-6-methoxy-N-(1-methyl-2-oxo-1,2-dihydropyridin-3-yl)-2H-indazole-5-carboxamide]
< 4.00 | 8.66 | 7.42 | COc1cc2nn([C@H]3CC[C@H](n4cncn4)CC3)cc2cc1C(=O)Nc1cccn(C)c1=O [Example 26, 2-((1r,4r)-4-(1H-1,2,4-Triazol-1-yl)cyclohexyl)-6-methoxy-N-(1-methyl-2-oxo-1,2-dihydropyridin-3-yl)-2H-indazole-5-carboxamide]
< 4.00 | 8.82 | 7.41 | COc1cc2nn([C@H]3CC[C@H](n4ccnn4)CC3)cc2cc1C(=O)Nc1cccn(C)c1=O [Example 27, 2-((1r,4r)-4-(1H-1,2,3-Triazol-1-yl)cyclohexyl)-6-methoxy-N-(1-methyl-2-oxo-1,2-dihydropyridin-3-yl)-2H-indazole-5-carboxamide]
5.16 | 9.00 | 7.66 | COc1cc2nn([C@H]3CC[C@H](n4cc(C(C)(C)O)nn4)CC3)cc2cc1C(=O)Nc1cccn(C)c1=O [Example 30, 2-((1r,4r)-4-(4-(2-Hydroxypropan-2-yl)-1H-1,2,3-triazol-1-yl)cyclohexyl)-6-methoxy-N-(1-methyl-2-oxo-1,2-dihydropyridin-3-yl)-2H-indazole-5-carboxamide]
